Patent publication US20170191058A1, “PERFORIN 2 DEFENSE AGAINST INVASIVE AND MULTIDRUG RESISTANT PATHOGENS” (priority 2012, published 2017)

B1: P-2-GFP: P-2 fused via a linker at the C-terminus of its cytoplasmic domain to GFP, expressed by transfection (protein)
chain: DKPLGETGTTGFQICKNALKLPVLEVLPGGGWDNLRNVDMGRVMDLTYTNCKTTEDGQYIIPDEVYTIPQKESNLEMNSEVLESWMNYQSTTSLSINTELALFSRVNGKFSTEFQRMKTLQVKDQAVTTRVQVRNRIYTVKTTPTSELSLGFTKALMDICDQLEKNQTKMATYLAELLILNYGTHVITSVDAGAALVQEDHVRSSFLLDNQNSQNTVTASAGIAFLNIVNFKVETDYISQTSLTKDYLSNRTNSRVQSFGGVPFYPGITLETWQKGITNHLVAIDRAGLPLHFFIKPDKLPGLPGPLVKKLSKTVETAVRHYYTFNTHPGCTNVDSPNFNFQANMDDDSCDAKVTNFTFGGVYQECTELSGDVLCQNLEQKNLLTGDFSCPPGYSPVHLLSQTHEEGYSRLECKKKCTLKIFCKTVCEDVFRVAKAEFRAYWCVAAGQVPDNSGLLFGGVFTDKTINPMTNAQSCPAGYIPLNLFESLKVCVSLDYELGFKFSVPFGGFFSCIMGNPLVNSDTAKDVRAPSLKKCPGGFSQHLAVISDGCQVSYCVKAGIFTGGSLLPVRLPPYTKPPLMSQVATNTVIVTNSETARSWIKDPQTNQWKLGEPLELRRAMTVIHGDSNGMSGGEAAGITLGVTIALGIVITLAIYGTRKYKKKEYQEIEEQESLVGSLATDATVLNGEEDPSPA
modifications: left off: large carriers

How the values were obtained:
P-2 mRNA = P-2 mRNA expression in mEF by TAQMAN PCR after cytokine treatment; type: cell-based, murine; conditions: added singly, 14 hours
Method: (§1) Murine embryonic fibroblasts (FIG. 14A), a rectal cancer cell line (FIG. 14B), myoblast cell line (FIG. 14C), and an ovarian cell line (FIG. 14D) were treated for 14 hours with 100 U/ml interferon-α, interferon-β, and interferon-γ treated. LPS was treated at 1 ng/ml; IL-1α at 10 U/ml, IL-1β at 1 ng/ml, and TNFα at 20 ng/mL. A human embryonic kidney cell line (FIG. 14E) and cervical cancer cell line (FIG. 14F) were treated with human IFN-α at 150 U/ml, IFN-β and IFN-γ at 100 U/ml. The BV2 microglial cell line was stimulated with 100 U/ml of murine Interferon-γ for 14 hours to upregulate P-2 mRNA and protein. mEF treated with IFN-γ for 14 hours (mEF), or IFN-γ for 14 hours followed by 1 hour of treatment with […] MG-132 (mEF+MG132) (FIG. 14G). Human primary keratinocytes were analyzed for protein expression with indicated recombinant human IFN treatment (FIG. 14H). mEF were treated with E. coli or M. smegmatis. At indicated time points, cells were harvested and analyzed for P-2 mRNA and compared to uninfected controls by TAQMAN™ PCR. (FIG. 14I) mEF were either not stimulated, or stimulated for 14 hours with IFN-γ at 100 U/ml. After stimulation, mEF were infected with M. smegmatis and analyzed for colony forming units at indicated time points.
Recombinant murine IL-1α, IL-1β, TNFα, IFN-γ, IFN-α, IFN-β recombinant human IFN-γ, IFN-β were purchased from preprotech. Recombant human IFN-α was purchased from R&D systems. Murine […] was supplemented at 10 U/mL where indicated. Murine IL-1β was supplemented at 1 ng/ml. Murine TNFα was supplemented at 20 ng/ml. Murine IFN-α, IFN-β and IFN-γ was supplemented with 100 U/ml. Human IFN-α was supplemented where indicated in at a concentration of 150 U/ml where indicated. Human IFN-β and IFN-γ was supplemented at a concentration of 100 U/ml. LPS was added at a concentration of 1 ng/ml.
RNA was extracted from cells following RNeasy (Qiagen) instructions. One μg of RNA was converted to cDNA using QuantiTect Reverse Transcription kit (Qiagen) following supplier's protocol. qRT-PCR was performed using TAQMAN® Gene Expression Assays (Applied Biosystems) for murine Mpeg1 and GAPDH, with the later serving as a housekeeping control gene. For human tissues, human Mpeg1 and GapDH probes were utilized. All assays were performed on the Applied Biosystems 7300 PCR platform.

M. smegmatis = test: Gentamycin protection assay: M. smegmatis in IFN-preinduced mEF; type: cell-based, Mycobacterium smegmatis; conditions: uninduced mEF delayed by about 16 h
Method: as §1, with “points. […]” for “points.”

P-2 = P-2 expression in macrophages, BMDM/DC and microglia after LPS and IFN-γ; type: cell-based, murine; conditions: LPS and IFN-γ given together, microglia
Method: BMDM/DC were differentiated from murine bone marrow for 10 days in the presence GM-CSF and then stimulated with (FIG. 9A) LPS ([…]) and IFNγ (100 U/ml) or (FIG. 9B) poly(I:C) (3 mg/ml) for 48 hr. (FIG. 9C) BV2 microglial cells were stimulated for 24 hr with IFNγ (100 U/ml). (FIG. 9D) RAW cells were stimulated for 24 hr with LPS (Ing/ml) and IFNγ (100 U/ml). Cells were harvested at the indicated time points and analyzed for P-2 message expression by TAQMAN™ RT-PCR, relative to GAPDH.
RNA was extracted from cells according to RNeasy (Qiagen) instructions. 1 μg of RNA was converted to cDNA using QuantiTect Reverse Transcription Kit (Qiagen) RT-PCR was performed using TAQMAN® Gene Expression Assays (Applied Biosystems) for murine Mpeg-1 and GAPDH, as a housekeeping control gene. All assays were performed on Applied Biosystems 7300 PCR platform.

[1] = test system: M avium, MRSA, S. typhimurium, E. coli and M. smegmatis; test: Gentamycin protection assay in RAW, BV2, BMDM/DC and PEM cells; type: cell-based; conditions: transfected cells vs vector control
Method: Gentamicin protection assay: S. typhimurium strain LT2Z, Mycobacterium avium, Mycobacterium smegmatis (ATCC), methicllin resistant Staphylococcus aureus and K12 E. coli were grown from glycerol stocks at 37° C. with shaking for 16-18 hr in Luria broth (LB) (S. typhimurium, S. aureus, and E. coli) or Middlebrook 7H9 broth (Mycobacteria) prior to infection. For Salmonella, the culture was then diluted 1:33 in LB and grown for another 3 hours to induce invasive phenotype. Macrophages or microglial cells were plated (5×10^5 cells/well of a 12 well plate) and stimulated overnight with LPS (Ing/ml) and IFN-γ (100 U/ml). Cells were infected the next day at indicated MOI for 30 minutes (S. typhimurium,) or 1 hour (all other bacteria) in 37° C., 5% CO2 incubator. Cells were washed twice with PBS and fresh medium containing 50 μg/ml gentamicin was added. […] At the indicated timepoints after adding gentamicin, the cells were washed with PBS, lysed using 0.1% Triton-X in water, diluted and plated in triplicate on agar plates and CFU determined. […]
In addition to PEM, bone marrow-derived macrophage/dendritic cells (BMDM/BMDC) and macrophage (RAW264.7) and microglia (BV2) cell lines have potent intracellular killing mechanisms for phagocytosed MRSA, Mycobacteria, S. typhimurium, and E. coli as determined by the gentamycin protection assay (FIGS. 3A-31). […]

intracellular bacteria = test: Gentamycin protection assay in various mouse and human cells and cell lines; type: cell-based; conditions: complementation assays
Method: (§2) Mouse rectal carcinoma CMT-93 was transiently transfected with a P-2 siRNA pool, or with P-2-RFP. Scramble siRNA or RFP were also transfected and analyzed to serve as controls for P-2 siRNA and P-2-RFP respectively. All transfections were performed 24 hours prior to infection. 14 hours prior to infection, cells were incubated with 100 U/ml of species specific IFN-γ. At indicated time points after infection, cells were lysed and plated for CFU analysis. (FIGS. 16A-16D) mEF were transfected with P-2siRNA and complemented with siRNA resistant P-2-RFP cDNA 24 hours prior to infection. 14 hours prior to infection, interferon-γ was added. mEF were infected with late log phase S. typhimurium. At indicated time points mEFs were lysed and analyzed for colony forming units. […]
S. typhimurium strain LT2Z), Mycobacterium smegmatis, methicillin-resistant Staphylococcus aureus, and E. coli strain K12 were grown from glycerol stocks at 37° C. with shaking for 24 hours in Luria broth (S. typhimurium, S. aureus, and E. coli) or Middlebrook 7H9 broth (M. smegmatis). […] At indicated time points, cells were washed with PBS, lysed using 1% Igepal in ddH2O, diluted and plated in technical triplicate on LB agar plates (S. typhimurium, S. aureus, E. coli) or Middlebrook 7H11 plates (M. smegmatis) and CFU determined after sufficient colony growth. […]

Salmonella = test: Gentamycin protection assay: intracellular Salmonella in mEF; type: cell-based, Salmonella typhimurium; conditions: P-2 siRNA co-transfected
Method: as §2
S. typhimurium strain LT2Z), Mycobacterium smegmatis, methicillin-resistant Staphylococcus aureus, and E. coli strain K12 were grown from glycerol stocks at 37° C. with shaking for 24 hours in Luria broth (S. typhimurium, S. aureus, and E. coli) or Middlebrook 7H9 broth (M. smegmatis). […] At indicated time points, cells were washed with PBS, lysed using 1% Igepal in ddH2O, diluted and plated in technical triplicate on LB agar plates (S. typhimurium, S. aureus, E. coli) or Middlebrook 7H11 plates (M. smegmatis) and CFU determined after sufficient colony growth.

Molecule | P-2 mRNA induction in mEF (P-2 mRNA) | time to kill intracellular M. smegmatis (M. smegmatis) | P-2 mRNA and protein expression (P-2) | effect of overexpression on intracellular killing [1] | activity of transfected fusion protein in killing of intracellular bacteria (intracellular bacteria) | complementation of endogenous P-2 knock down in mEF: killing activity (Salmonella)
IFNγ | up-regulates P-2 mRNA | 1 to 5 h | upregulate P-2 mRNA and protein expression |  |  | 
B1 |  |  |  | increases bactericidal activity | functional in killing of intracellular bacteria | fully reconstitutes bactericidal activity
